Laboratory results from patent publication US20050026950A1, “Methods of therapeutic treatment using retinoids to achieve consistent bioavailability” (Allergan, Inc., priority 2003, published 2005).

Assays:
Assay type in all cases: in vivo, human
[1] = Two placebo-controlled dose-ranging safety studies of oral tazarotene in nodulocystic acne
Description: Two placebo-controlled dose-ranging studies are conducted to evaluate the safety of oral tazarotene in patients having nodulocystic acne. In the first study, patients receive orally administered tazarotene at daily doses of 0.4 mg to 2.8 mg in 96 (71+25) patients (12 weeks treatment plus 12 weeks post-treatment). In the second study, daily doses of 0.75 mg to 6 mg tazarotene are administered to 181 patients (24 weeks treatment plus 12 weeks post-treatment).

[2] = Studies of orally administered tazarotene for acne, adverse event monitoring; conditions: combined data from Studies 1 and 2 (N = 223)
Description: Studies are conducted on orally administered tazarotene for the treatment of acne. Adverse events (side effects) are monitored.

[3] = Two placebo-controlled 24-week safety studies of oral tazarotene plus 16- to 24-week dose-response evaluations
Description: Two multicenter, double-blind, randomized, placebo-controlled 24-week studies of identical design are conducted to evaluate the safety of oral tazarotene. In addition, 16- to 24-week dose-response evaluations are performed.
In the two safety trials, the incidence of adverse side effects with a 4.5 mg dose administered orally once daily is compared to the incidence of the same side effects with a placebo. […] The majority of these were mild in severity and typical of adverse effects associated with oral retinoids.

[4] = PK and PD interaction studies of oral tazarotene and oral contraceptives in healthy volunteers; conditions: orally, up to 6 mg once daily
Description: It is the objective of this study to determine if there are pharmacokinetic (PK) and pharmacodynamic (PD) interactions between tazarotene and commonly prescribed oral contraceptives (OCs) when coadministered together.
Three separate clinical studies are conducted to evaluate the PK and PD interactions of oral tazarotene and OCs in healthy volunteers. Two studies evaluate daily doses of norethindrone (NE)/ethinyl estradiol (EE) with daily doses of tazarotene 1.1 mg (N=27) and 6 mg (N=29). The third study assesses the daily doses of norgestimate (NGM)/EE with daily doses of tazarotene 6 mg (N=26). OCs are administered for three consecutive menstrual cycles. Daily doses of tazarotene are started during the 2nd cycle and continued through the end of the studies. PK parameters for EE, NE, and NGM (AUC0-24 and Cmax) are determined before tazarotene dosing and after tazarotene dosing on day 6 of the 2nd and 3rd cycles. Serum concentrations of luteinizing hormone (LH) and follicle-stimulating hormone (FSH)-markers of contraceptive efficacy are also evaluated before tazarotene dosing and after tazarotene dosing on days 2, 4, and 6 of the 2nd and 3rd cycles. Serum progesterone levels are assessed on days 18 and 20 of the 2nd and 3rd cycles. […]

[5] = system: moderate to very severe plaque psoriasis; test: Open-label extension study of oral tazarotene in plaque psoriasis non-responders
[6] = 4.5 mg orally once daily, two safety trials
[7] = 4.5 mg once daily, 12-week extension
[8] = 4.5 mg once daily, 12-week extension, across both groups

For `CCOC(=O)c1ccc(C#Cc2ccc3c(c2)C(C)(C)CCS3)nc1` [tazarotene], the “changes in urinalysis, chemistry, or hematology measures (liver function tests, triglycerides, total and HDL cholesterol)” value ([1]; 0.4 mg to 6 mg daily) was “no consistent dose-related clinically significant changes”, the “ligament calcification, osteophyte formation, serum bone alkaline phosphatase, amino terminal telopeptides, bone density” value ([1]; 0.4 mg to 6 mg daily) was “not associated with any clinically significant” and the incidence of arthralgia ([1]; 2.8 mg, n=11, treatment period) was 9%. For the same compound, the incidence of asthenia ([1]; 2.8 mg, n=11, treatment period) was 0%, the incidence of cheilitis ([1]; 2.8 mg, n=11, treatment period) was 64% and the “incidence of dry skin” value ([1]; 2.8 mg, n=11, treatment period) was 18%. For the same compound, the incidence of headache ([1]; 2.8 mg, n=11, treatment period) was 9%, the “incidence of joint disorder” value ([1]; 2.8 mg, n=11, treatment period) was 27% and the incidence of myalgia ([1]; 2.8 mg, n=11, treatment period) was 0%. For the same compound, the severe dry skin ([1]; 3 mg and 6 mg groups) was “No patient has severe dry skin”, the “Emotional lability, patients” value ([1]; 3 mg group) was 3% and the mild cheilitis ([1]; 3 mg group) was 25 patients. For the same compound, the mild dry skin ([1]; 3 mg group) was 11 patients, the moderate cheilitis ([1]; 3 mg group) was 3 patients and the moderate dry skin ([1]; 3 mg group) was 2 patient. For the same compound, the severe cheilitis ([1]; 3 mg group) was 1 patient, the “Depression, patients” value ([1]; 3 mg group (2 mild, 1 severe)) was 8% and the incidence of arthralgia ([1]; 3 mg, n=37, treatment period) was 8%. For the same compound, the incidence of asthenia ([1]; 3 mg, n=37, treatment period) was 19%, the incidence of cheilitis ([1]; 3 mg, n=37, treatment period) was 78% and the “incidence of dry skin” value ([1]; 3 mg, n=37, treatment period) was 35%. The incidence of headache ([1]; 3 mg, n=37, treatment period) was 19%, the “incidence of joint disorder” value ([1]; 3 mg, n=37, treatment period) was 14% and the incidence of myalgia ([1]; 3 mg, n=37, treatment period) was 16%. The “Depression, patients” value ([1]; 6 mg group) was “none”, the “Emotional lability, patients” value ([1]; 6 mg group) was 14% and the mild cheilitis ([1]; 6 mg group) was 27 patients. For the same compound, the mild dry skin ([1]; 6 mg group) was 17 patients, the moderate cheilitis ([1]; 6 mg group) was 6 patients and the moderate dry skin ([1]; 6 mg group) was 1 patient. The severe cheilitis ([1]; 6 mg group) was 1 patient, the incidence of arthralgia ([1]; 6 mg, n=36, treatment period) was 28% and the incidence of asthenia ([1]; 6 mg, n=36, treatment period) was 19%. For the same compound, the incidence of cheilitis ([1]; 6 mg, n=36, treatment period) was 94%, the “incidence of dry skin” value ([1]; 6 mg, n=36, treatment period) was 50% and the incidence of headache ([1]; 6 mg, n=36, treatment period) was 36%. For the same compound, the “incidence of joint disorder” value ([1]; 6 mg, n=36, treatment period) was 19%, the incidence of myalgia ([1]; 6 mg, n=36, treatment period) was 25% and the “patients withdrawing from either study due to adverse events” value ([1]; both studies, 7/277 patients including placebo) was 2.5%. For the same compound, the Cheilitis [2] was 134 (60.1) number (%) of patients, the Conjunctivitis [2] was 0 (0.0) number (%) of patients and the “Desquamation central face/Desquamation” value [2] was 1 (0.4) number (%) of patients. For the same compound, the Dry Skin [2] was 79 (35.4) number (%) of patients, the Dry nose [2] was 7 (3.1) number (%) of patients and the Epistaxis [2] was 6 (2.7) number (%) of patients. For the same compound, the “Fingertip peeling/Desquamation” value [2] was 1 (0.4) number (%) of patients, the Headache [2] was 26 (11.7) number (%) of patients and the Irritation of eyes [2] was 0 (0.0) number (%) of patients. The “Joint pain/Arthralgia” value [2] was 18 (8.1) number (%) of patients, the Peeling/Desquamation [2] was 1 (0.4) number (%) of patients and the Pruritus [2] was 10 (4.5) number (%) of patients. For the same compound, the Rash-dermatitis/Rash [2] was 7 (3.1) number (%) of patients, the “Red Scaly face/Desquamation” value [2] was 1 (0.4) number (%) of patients and the “Skin fragility/Skin disorder” value [2] was 1 (0.4) number (%) of patients. For the same compound, the incidence of agitation ([3]; 4.5 mg orally once daily) was less than 1%, the “incidence of altered hormone levels (TSH, T4, thyroid function test)” value ([3]; 4.5 mg orally once daily) was 0% and the incidence of anxiety ([3]; 4.5 mg orally once daily) was 1%. The incidence of depression ([3]; 4.5 mg orally once daily) was 1%, the “incidence of emotional lability” value ([3]; 4.5 mg orally once daily) was 3% and the incidence of psychosis ([3]; 4.5 mg orally once daily) was 0%. For the same compound, the “incidence of psychotic depression” value ([3]; 4.5 mg orally once daily) was 0%, the “incidence of hypertriglyceridemia, hypercholesterolemia, abnormal liver function tests, increased ALT/AST, desquamation, eye dryness, alopecia” value ([3]; 4.5 mg orally once daily vs placebo) was “essentially the same incidence with oral tazarotene as with placebo” and the incidence of arthralgia [3, 6] was 17%. For the same compound, the “incidence of back pain” value [3, 6] was 7%, the incidence of cheilitis [3, 6] was 66% and the incidence of dermatitis [3, 6] was 1%. The “incidence of dry skin” value [3, 6] was 24%, the “incidence of foot pain” value [3, 6] was 3% and the incidence of headache [3, 6] was 19%. The incidence of hyperglycemia [3, 6] was 2%, the “incidence of joint disorder” value [3, 6] was 4% and the incidence of myalgia [3, 6] was 14%. The “incidence of nasal dryness” value [3, 6] was 4%, the incidence of rash [3, 6] was 3% and the “incidence of patients discontinuing due to adverse effects” value ([3]; 0.4 to 1.1 mg oral (n=105)) was “approximately 2%”. The “incidence of patients discontinuing due to adverse effects” value ([3]; 2.1 to 2.8 mg oral (n=21)) was 10%, the “effect on the PK or efficacy of NE/EE and NGM/EE oral contraceptives” value [4] was “does not affect” and the “changes in liver function test values or cholesterol levels” value [5, 7] was “no clinically significant changes”. For the same compound, the “serious adverse events related to study treatment” value [5, 7] was “no serious adverse events considered related to the study treatment”, the incidence of arthralgia [5, 8] was 20% and the incidence of asthenia [5, 8] was 6%. The “incidence of back pain” value [5, 8] was 11%, the incidence of cheilitis [5, 8] was 70% and the “incidence of dry skin” value [5, 8] was 25%. For the same compound, the incidence of headache [5, 8] was 11%, the incidence of hypertriglyceridemia [5, 8] was 6% and the incidence of infection [5, 8] was 10%. For the same compound, the incidence of myalgia [5, 8] was 15% and the “Clinical success (a 2-grade reduction in OLA), patients” value ([5]; end of the 12-week post-treatment period) was 16%.
